Values of other authors in paper PMC6277198, “Molecular basis for activation of lecithin:cholesterol acyltransferase by a compound that increases HDL cholesterol” (eLife, 2018).

What was measured:
mice and hamsters = system: mice and hamsters; parameters: method as in Chen et al., 2012; Freeman et al., 2017; Kayser et al., 2013; conditions: ref Chen et al., 2012, Freeman et al., 2017, Kayser et al., 2013; cited from earlier work
LCAT = system: LCAT; parameters: method as in Kobayashi et al., 2015a; Kobayashi et al., 2015b; conditions: removal of the C4 hydroxyl group, ref Kobayashi et al., 2015a, 2015b; cited from earlier work
[1] = parameters: method as in Shamburek et al., 2016b; conditions: ref Shamburek et al., 2016b; cited from earlier work

CCSc1nnc(Sc2nccnc2C#N)s1 [Compound A, 3-(5-(ethylthio)−1,3,4-thiadiazol-2-ylthio)pyrazine-2-carbonitrile]
plasma CE and HDL-C levels (mice and hamsters): increases

O=C1CC(C(F)(F)F)c2c(C3CCN(c4cnc(C(F)(F)F)cn4)CC3)n[nH]c2N1 (stereo not drawn) [compound 4, 4-(trifluoromethyl)−3-(1-(5-(trifluoromethyl)pyrazin-2-yl)piperidin-4-yl)−1,4,5,7-tetrahydro-6H-pyrazolo[3,4-b]pyridin-6-one]
drop in potency compared with 2 (LCAT): ~ 6 fold

rhLCAT: Recombinant human LCAT, tested in phase I and as enzyme replacement therapy
safety in a phase I study [1]: safe
